The target of this assay is PI3Kα E545K (Homo sapiens, UniProt P42336, E545K). Briefly: PI3Kα E545K mutant in vitro cell based assay, MDA-MB-361 cells. More on the design: MDA-MB-361 (ATCC-HTB-27) cell line (PI3Kα E545K); host or cells: MDA-MB-361. The conditions noted are these: MDA-MB-361 cell line, 0% FBS, no insulin, 3 hours treatment. The text has this:
PI3K-Alpha Kinase (PI3Kα) Activity: Wild-Type PI3Kα, H1047R Mutant PI3Kα, and E545K Mutant PI3Kα In Vitro Cell Based Assays and Determination of IC50 Values for Inhibitors
The MDA-MB-453 (ATCC-HTB-131) cell line (PI3Kα H1047R) and MCF-7 (ATCC-HTB-22) cell line (PI3Kα E545K), MDA-MB-361 (ATCC-HTB-27) cell line (PI3Kα E545K), and SKBR3 (ATCC-HTB-30) cell line (wild type PI3Kα) were obtained from the American Type Culture Collection (Manassas, VA). MDA-MB-453 cells were maintained in Dulbecco's Modified Eagle Media (DMEM, Gibco 12430) supplemented with 10% Fetal Bovine Serum, heat inactivated (FBS HI, Gibco 10082), 1× non-essential amino acids (NEAA, Gibco 11140), 1 mM sodium pyruvate (Gibco 11360) and 1× Anti-Anti (Gibco 15240). MCF-7 cells were maintained in Minimum Essential Media (MEM) (Gibco 11095) supplemented with 10% Fetal Bovine Serum, heat inactivated (FBS HI, Gibco 10082), 1× non-essential amino acids (NEAA, Gibco 11140), 1 mM sodium pyruvate (Gibco 11360), 1× Anti-Anti (Gibco 15240) and 10 μg/mL human insulin (Sigma I 9278). MDA-MB-361 cells were maintained in Dulbecco's Modified Eagle Media (DMEM, Gibco 12430) supplemented with 20% Fetal Bovine Serum, heat inactivated (FBS HI, Gibco 10082), 1× non-essential amino acids (NEAA, Gibco 11140), 1 mM sodium pyruvate (Gibco 11360) and 1× Anti-Anti (Gibco 15240). SKBR3 cells were maintained in McCoy's 5A (Gibco 16600) supplemented with 10% Fetal Bovine Serum, heat inactivated (FBS HI, Gibco 10082), and 1× Anti-Anti (Gibco 15240). Cultures were maintained in a humidified incubator at 37° C. under 5% CO2/95% air.
For compound testing in 0% FBS, MDA-MB-453, MCF-7 and SKBR3 cells were seeded at a density of 1.5×10^4, 1.0×10^4, and 1.0×10^4 cells, respectively, per well in white 384-well plates in 20 μl of Minimum Essential Media (MEM) assay media with 1×NEAA, 1 mM sodium pyruvate, and 1 μg/mL human insulin (Sigma 19278) (Assay Medium); while MDA-MB-361 cells were seeded at a density of 1.5×10^4 per well in white 384-well plates in 20 μl Assay Medium without insulin. After plating, cells were allowed to attach overnight. Compounds dissolved in 10 mM stock solutions in DMSO were serially diluted 1:3 in DMSO to generate a 10-point dilution series and plated using an acoustic liquid handler system (Echo 550 Series Liquid Handler, Labcyte). A 5× intermediate compound dilution plate in MEM with 1×NEAA and 1 mM sodium pyruvate (150 μM starting compound concentration in 1.5% DMSO) was then prepared. Five μl of the intermediate serially diluted compounds were added to the cell plate to final concentrations ranging from […] in 0.3% DMSO. 0.3% DMSO alone was used to establish the maximum (MAX) signal and GDC-0032 at a final concentration of 1 μM was used as a reference compound for the minimum (MIN) signal. After 3 hours treatment, the medium was removed, and the cells were lysed in 10 μL of 1× SureFire Lysis buffer with shaking for 10 minutes at room temperature. The Acceptor Mix (Reaction Buffer 1+Reaction Buffer 2+Activation Buffer+SureFire Ultra Acceptor Beads) was prepared by diluting Activation buffer 25-fold in combined Reaction Buffer 1 and Reaction Buffer 2.
The Acceptor beads were diluted 50-fold in the combined Reaction Buffers. Five μL of Acceptor Mix was added to each well, the plate was sealed and covered with foil and incubated for 1 hour at room temperature. The Donor Mix (dilution buffer+SureFire Ultra Donor Beads) was prepared by diluting Donor Beads 50-fold in dilution buffer. Five μL of the Donor Mix was added to each well and the plate sealed and covered with foil and incubated for 1-2 hours at room temperature in the dark. The plates were read on a Neo2 plate reader instrument from Biotek using standard AlphaLisa settings.
Compounds were tested in duplicate and the % inhibition at each compound concentration was used to generate two dose response curves. One IC50 was generated using average % inhibition at each compound concentration. […]
Chain of PI3Kα E545K (P42336 whole entry E545K): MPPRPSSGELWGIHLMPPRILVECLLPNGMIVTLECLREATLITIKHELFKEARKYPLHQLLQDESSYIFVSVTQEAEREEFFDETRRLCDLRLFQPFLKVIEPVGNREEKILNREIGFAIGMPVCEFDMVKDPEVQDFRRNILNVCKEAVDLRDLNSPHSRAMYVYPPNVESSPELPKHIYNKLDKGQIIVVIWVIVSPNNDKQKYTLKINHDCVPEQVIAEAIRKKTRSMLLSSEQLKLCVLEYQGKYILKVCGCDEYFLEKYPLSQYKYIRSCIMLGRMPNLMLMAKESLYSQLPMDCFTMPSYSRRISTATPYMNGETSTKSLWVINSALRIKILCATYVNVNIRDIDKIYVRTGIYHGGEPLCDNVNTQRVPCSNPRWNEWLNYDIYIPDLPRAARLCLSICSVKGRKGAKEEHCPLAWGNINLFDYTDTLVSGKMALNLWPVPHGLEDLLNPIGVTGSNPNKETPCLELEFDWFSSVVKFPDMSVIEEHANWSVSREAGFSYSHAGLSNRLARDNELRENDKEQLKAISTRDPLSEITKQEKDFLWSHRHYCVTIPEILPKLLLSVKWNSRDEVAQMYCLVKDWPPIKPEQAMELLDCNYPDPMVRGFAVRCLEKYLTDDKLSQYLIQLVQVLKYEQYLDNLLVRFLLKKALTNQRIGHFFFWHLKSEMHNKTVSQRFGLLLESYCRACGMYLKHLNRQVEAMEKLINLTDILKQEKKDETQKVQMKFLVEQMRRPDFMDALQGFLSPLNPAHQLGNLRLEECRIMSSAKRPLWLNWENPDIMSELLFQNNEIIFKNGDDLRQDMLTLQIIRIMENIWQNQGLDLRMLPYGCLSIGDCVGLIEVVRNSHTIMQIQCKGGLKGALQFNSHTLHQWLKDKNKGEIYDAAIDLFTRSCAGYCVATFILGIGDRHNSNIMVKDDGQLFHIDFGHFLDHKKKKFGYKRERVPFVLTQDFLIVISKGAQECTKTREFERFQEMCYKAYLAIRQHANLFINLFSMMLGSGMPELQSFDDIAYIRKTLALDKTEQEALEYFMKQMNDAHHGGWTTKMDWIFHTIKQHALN
Chain of PI3Kα E545K (P27986 whole entry partner): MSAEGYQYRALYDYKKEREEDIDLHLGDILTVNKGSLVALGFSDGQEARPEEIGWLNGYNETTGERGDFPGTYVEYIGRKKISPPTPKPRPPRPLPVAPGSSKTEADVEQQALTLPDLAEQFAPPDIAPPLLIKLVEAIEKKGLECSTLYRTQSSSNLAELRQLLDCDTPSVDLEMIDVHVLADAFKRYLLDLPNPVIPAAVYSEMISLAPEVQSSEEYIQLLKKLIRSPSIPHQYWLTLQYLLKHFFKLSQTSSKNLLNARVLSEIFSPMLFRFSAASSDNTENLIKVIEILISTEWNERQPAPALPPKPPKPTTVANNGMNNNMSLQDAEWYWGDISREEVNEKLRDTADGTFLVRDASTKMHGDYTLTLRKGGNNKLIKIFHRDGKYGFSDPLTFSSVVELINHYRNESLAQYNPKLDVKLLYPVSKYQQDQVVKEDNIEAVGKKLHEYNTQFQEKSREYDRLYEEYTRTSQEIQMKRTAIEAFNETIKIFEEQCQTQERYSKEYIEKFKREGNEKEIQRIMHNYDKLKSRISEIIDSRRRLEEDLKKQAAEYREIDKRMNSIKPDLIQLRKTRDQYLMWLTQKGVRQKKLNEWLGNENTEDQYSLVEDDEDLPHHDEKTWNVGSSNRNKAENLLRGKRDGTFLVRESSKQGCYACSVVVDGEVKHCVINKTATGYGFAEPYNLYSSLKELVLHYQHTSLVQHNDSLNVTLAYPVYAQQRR
As a reminder, the IC50 is the concentration needed to halve the response being measured. A low value points to inhibition by little substance. In the case of `Cc1cc([C@@H](C)Oc2ccc(Cl)nc2C)c2oc(-c3cnn(CCO)c3)c(C)c(=O)c2c1` [Example 72C, 8-[(1R)-1-[(6-Chloro-2-methyl-3-pyridyl)oxy]ethyl]-2-[1-(2-hydroxyethyl)pyrazol-4-yl]-3,6-dimethyl-chromen-4-one], the concentration for half-maximal inhibition (IC50) was under 500 nM.

Compound `Cc1cc([C@@H](C)Oc2ccc(Cl)nc2C(N)=O)c2oc(-c3ccn4nc(C)cc4c3)c(C)c(=O)c2c1` [Example 76C, 6-Chloro-3-[(1R)-1-[3,6-dimethyl-2-(2-methylpyrazol[1,5-a]pyridin-5-yl)-4-oxo-chromen-8-yl]ethoxy]pyridine-2-carboxamide] yielded an IC50 of under 500 nM.

On to `Cc1cc([C@@H](C)Oc2ccc(Cl)nc2C(N)=O)c2oc(-c3ccc4nn(C5COC5)cc4c3)c(C)c(=O)c2c1` [Example 77C, 6-Chloro-3-[(1R)-1-[3,6-dimethyl-2-[2-(oxetan-3-yl)indazol-5-yl]-4-oxo-chromen-8-yl]ethoxy]pyridine-2-carboxamide], for which the IC50 was under 500 nM.

`CCc1nc2ccc(-c3oc4c([C@@H](C)Oc5ccc(Cl)nc5C(N)=O)cc(C)cc4c(=O)c3C)cc2s1` [Example 83C, 6-Chloro-3-[(1R)-1-[2-(2-ethyl-1,3-benzothiazol-6-yl)-3,6-dimethyl-4-oxo-chromen-8-yl]ethoxy]pyridine-2-carboxamide]: the half-inhibitory concentration (IC50) was under 500 nM.

Consider `CCc1nc2ccc(-c3oc4c([C@@H](C)Oc5ccc(Cl)nc5C(N)=O)cc(C)cc4c(=O)c3C)cc2o1` [Example 84C, 6-Chloro-3-[(1R)-1-[2-(2-ethyl-1,3-benzoxazol-6-yl)-3,6-dimethyl-4-oxo-chromen-8-yl]ethoxy]pyridine-2-carboxamide], for which the IC50 is under 500 nM.

In turn, `Cc1cc([C@@H](C)Oc2ccc(Cl)cc2S(N)(=O)=O)c2oc(-c3cnc4ccoc4c3)c(C)c(=O)c2c1` [Example 100C, 5-Chloro-2-[(1R)-1-(2-furo[3,2-b]pyridin-6-yl-3,6-dimethyl-4-oxo-chromen-8-yl)ethoxy]benzenesulfonamide] registered an IC50 of under 500 nM.

Compound `Cc1cc([C@@H](C)Oc2ccccc2S(N)(=O)=O)c2oc(-c3ccccc3)c(C)c(=O)c2c1` [Example 102C, 2-[(1R)-1-(3,6-Dimethyl-4-oxo-2-phenyl-chromen-8-yl)ethoxy]benzenesulfonamide] yielded an IC50 of under 500 nM.

`Cc1cc([C@@H](C)Oc2ccc(Cl)nc2C(N)=O)c2oc(-c3ccc4c(c3)OCCN4C)c(C)c(=O)c2c1` [Example 104A, 6-Chloro-3-[(1R)-1-[3,6-dimethyl-2-(4-methyl-2,3-dihydro-1,4-benzoxazin-7-yl)-4-oxo-chromen-8-yl]ethoxy]pyridine-2-carboxamide] registered a half-inhibitory concentration (IC50) of under 500 nM.

For `Cc1cc([C@@H](C)Oc2ccc(F)cc2S(N)(=O)=O)c2oc(-c3cnc4ccoc4c3)c(C)c(=O)c2c1` [Example 106C, 5-Fluoro-2-[(1R)-1-(2-furo[3,2-b]pyridin-6-yl-3,6-dimethyl-4-oxo-chromen-8-yl)ethoxy]benzenesulfonamide], the IC50 was under 500 nM.

`Cc1cc([C@@H](C)Oc2ccc(Cl)nc2S(N)(=O)=O)c2oc(-c3cnn(C[C@]45C[C@H](CO4)C5)c3)c(C)c(=O)c2c1` [Example 118C, 6-Chloro-3-[(1R)-1-[3,6-dimethyl-2-[1-(2-oxabicyclo[2.1.1]hexan-1-ylmethyl)pyrazol-4-yl]-4-oxo-chromen-8-yl]ethoxy]pyridine-2-sulfonamide] displayed a 50% inhibitory concentration (IC50) of under 500 nM.

Consider `Cc1cc([C@@H](C)Oc2ccc(Cl)nc2C(N)=O)c2oc(-c3ccc4cc[nH]c(=O)c4c3)c(C)c(=O)c2c1` [Example 120A, 6-Chloro-3-[(1R)-1-[3,6-dimethyl-4-oxo-2-(1-oxo-2H-isoquinolin-7-yl)chromen-8-yl]ethoxy]pyridine-2-carboxamide], for which the 50% inhibitory concentration (IC50) was under 500 nM.

Turning to `CONS(=O)(=O)c1nc(Cl)ccc1O[C@H](C)c1cc(C)cc2c(=O)c(C)c(-c3cnn(CC(C)(C)O)c3)oc12` [Example 121C, 6-Chloro-3-[(1R)-1-[2-[1-(2-hydroxy-2-methyl-propyl)pyrazol-4-yl]-3,6-dimethyl-4-oxo-chromen-8-yl]ethoxy]-N-methoxy-pyridine-2-sulfonamide], the IC50 is under 500 nM.

The compound `Cc1cc([C@@H](C)Oc2ccc(C)nc2S(N)(=O)=O)c2oc(-c3ccccc3)c(C)c(=O)c2c1` [Example 122C, 3-[(1R)-1-(3,6-Dimethyl-4-oxo-2-phenyl-chromen-8-yl)ethoxy]-6-methyl-pyridine-2-sulfonamide] came in with an IC50 of under 500 nM.

On to `Cc1cc([C@@H](C)Oc2ccc(Cl)nc2S(N)(=O)=O)c2oc(-c3cnn(CC4(C#N)CC4)c3)c(C)c(=O)c2c1` [Example 124C, 6-Chloro-3-[(1R)-1-[2-[1-[(1-cyanocyclopropyl)methyl]pyrazol-4-yl]-3,6-dimethyl-4-oxo-chromen-8-yl]ethoxy]pyridine-2-sulfonamide], for which the IC50 is under 500 nM.

In the case of `Cc1cc([C@@H](C)Oc2ccc(Cl)nc2C(N)=O)c2oc(-c3ccc4nn([C@H]5C[C@H](O)C5)cc4c3)c(C)c(=O)c2c1` [Example 134C, 6-Chloro-3-[(1R)-1-[2-[2-(3-hydroxycyclobutyl)indazol-5-yl]-3,6-dimethyl-4-oxo-chromen-8-yl]ethoxy]pyridine-2-carboxamide], the 50% inhibitory concentration (IC50) is under 500 nM.

For the origin of these results see US20240182460A1, “ALLOSTERIC CHROMENONE INHIBITORS OF PHOSPHOINOSITIDE 3-KINASE (PI3K) FOR THE TREATMENT OF DISEASE” (PETRA PHARMA CORPORATION, priority 2022, published 2024).
